From PubChem BioAssay (NCI)
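Tested at 5 concentrations; 48 h exposure; 96-well plates; endpoints linearly interpolated, else capped at highest concentration. Here, GI50 denotes the concentration required for 50% inhibition of growth. TGI is the concentration that stops growth completely.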

Experiments:
Experiment in all cases: NCI-60 cell line screen, 48 h
[1] = system: HOP-62 NSCLC
[2] = system: SK-MEL-5 melanoma
[3] = system: 786-0 renal
[4] = system: EKVX NSCLC
[5] = system: HCT-116 colon
[6] = system: SF-268 CNS
[7] = system: SW-620 colon
[8] = system: UACC-257 melanoma

## c1ccc(N=C2SC3=Nc4cccc5cccc(c45)N3C2=Nc2ccccc2)cc1
[1]
  TGI: > 100 µM
[2]
  TGI: > 100 µM

## O=C(CCC(=O)c1ccc(Cl)cc1)NO
[3]
  TGI: > 100 µM
[4]
  TGI: > 100 µM
[5]
  TGI: > 100 µM
[1]
  TGI: > 100 µM
[6]
  TGI: > 100 µM
[2]
  TGI: > 100 µM
[7]
  TGI: > 100 µM
[8]
  TGI: > 100 µM

## CCOC(=O)Nn1c(C)nnc1-c1ccccc1
[3]
  TGI: > 100 µM
[4]
  TGI: > 100 µM
[5]
  TGI: > 100 µM
[6]
  TGI: > 100 µM
[2]
  TGI: > 100 µM
[7]
  TGI: > 100 µM
[8]
  TGI: > 100 µM

## COc1cc([C@@H]2c3cc4c(cc3[C@@H](Nc3ccc([N+](=O)[O-])cc3C(=O)c3ccccc3)[C@H]3COC(=O)[C@H]23)OCO4)cc(OC)c1OC
[3]
  TGI: > 100 µM
[4]
  TGI: > 100 µM
[5]
  TGI: > 100 µM
[1]
  TGI: > 100 µM
[6]
  TGI: > 100 µM
[7]
  TGI: > 100 µM
[8]
  TGI: > 100 µM

## CCOc1cc2c(cc1O)/C(=N\OC)C[C@@H]1[C@@H]2CC[C@]2(C)[C@@H](O)CC[C@@H]12
[4]
  TGI: > 100 µM
[5]
  TGI: > 38.7 µM
[1]
  TGI: 26.4 µM
[6]
  TGI: > 43.3 µM
[2]
  TGI: 12.6 µM
[7]
  TGI: > 35.3 µM
[8]
  TGI: > 48.1 µM

## CCOC(=O)C(NC(C)=O)(Nc1ccc(F)cc1)C(F)(F)F (stereo unspecified)
[4]
  TGI: > 100 µM
[5]
  TGI: > 100 µM
[6]
  TGI: > 100 µM
[2]
  TGI: > 100 µM
[7]
  TGI: > 100 µM
[8]
  TGI: > 100 µM

## FC(F)(F)c1cc(Cl)cnc1N/N=C(/c1ccccc1)c1ccccn1
[3]
  TGI: 16.4 µM
[4]
  TGI: 4.97 µM
[5]
  TGI: 19.2 µM
[1]
  TGI: 19.7 µM
[6]
  TGI: 11.3 µM
[2]
  TGI: > 100 µM
[7]
  TGI: > 100 µM
[8]
  TGI: 16.5 µM

## O=c1[nH][nH]c(=O)n1Cc1ccccc1Cn1c(=O)[nH][nH]c1=O
[3]
  TGI: > 100 µM
[4]
  TGI: > 100 µM
[5]
  TGI: > 100 µM
[1]
  TGI: > 100 µM
[6]
  TGI: > 100 µM
[2]
  TGI: > 100 µM
[7]
  TGI: > 100 µM
[8]
  TGI: > 100 µM

## COc1ccc(C2c3cc4c(cc3OC(NNS(=O)(=O)c3ccc(C)cc3)C2C)OCO4)cc1 (stereo unspecified)
[3]
  TGI: > 100 µM
[5]
  TGI: > 100 µM
[1]
  TGI: > 100 µM
[6]
  TGI: > 100 µM
[2]
  TGI: > 100 µM
[7]
  TGI: > 100 µM
[8]
  TGI: > 100 µM

## CNC(=O)OCC1=C(COC(=O)NC)C(C)N(c2ccc(OC)cc2)C1 (stereo unspecified)
[3]
  TGI: > 100 µM
[4]
  TGI: > 100 µM
[5]
  TGI: > 100 µM
[1]
  TGI: > 100 µM
[6]
  TGI: > 100 µM
[2]
  TGI: > 100 µM
[7]
  TGI: > 100 µM
[8]
  TGI: > 100 µM

## O=C(O)CN(CC(=O)O)C1CCCCC1N(CC(=O)O)CC(=O)NCCN=C=S (stereo unspecified)
[4]
  TGI: > 100 µM
[5]
  TGI: > 100 µM
[1]
  TGI: > 100 µM
[6]
  TGI: > 100 µM
[2]
  TGI: > 100 µM
[7]
  TGI: > 100 µM
[8]
  TGI: > 100 µM

## COc1ccc(C(OCC2OC(n3cc(C)c(=O)[nH]c3=O)CC2n2cc(Cn3cc(I)c(=O)[nH]c3=O)nn2)(c2ccccc2)c2ccccc2)cc1 (stereo unspecified)
[3]
  TGI: > 100 µM
[4]
  TGI: > 100 µM
[5]
  TGI: > 100 µM
[1]
  TGI: > 100 µM
[6]
  TGI: > 100 µM
[2]
  TGI: > 100 µM
[7]
  TGI: > 100 µM
[8]
  TGI: > 100 µM

## COc1cc(/C=C/C(=N\NS(=O)(=O)c2ccc(C)cc2)c2sc(NNC(C)=O)nc2C)ccc1O
[3]
  TGI: > 100 µM
[4]
  TGI: > 100 µM
[5]
  TGI: > 100 µM
[1]
  TGI: > 100 µM
[6]
  TGI: > 100 µM
[2]
  TGI: > 100 µM
[7]
  TGI: > 100 µM
[8]
  TGI: > 100 µM

## Cc1ccccc1-n1c(=O)c2ncn(CCCl)c2n(-c2ccccc2C)c1=S
[3]
  TGI: > 100 µM
[4]
  TGI: > 100 µM
[5]
  TGI: > 100 µM
[1]
  TGI: > 100 µM
[6]
  TGI: > 100 µM
[2]
  TGI: > 100 µM
[7]
  TGI: > 100 µM
[8]
  TGI: > 100 µM

## Cc1ccsc1/C=N/Nc1ncccn1
[3]
  TGI: > 100 µM
[4]
  TGI: > 100 µM
[5]
  TGI: > 100 µM
[1]
  TGI: > 100 µM
[6]
  TGI: > 100 µM
[2]
  TGI: > 100 µM
[7]
  TGI: > 100 µM
[8]
  TGI: > 100 µM

## Oc1ccc(-c2nc(-c3cccnc3)c(-c3ccc(F)cc3)[nH]2)cc1
[3]
  TGI: 59 µM
[4]
  TGI: 41.7 µM
[5]
  TGI: 32.9 µM
[1]
  TGI: 36.7 µM
[6]
  TGI: 49.8 µM
[2]
  TGI: 33.8 µM
[7]
  TGI: 35.5 µM
[8]
  TGI: 31.5 µM

## CC(C)CC(=O)OC[n+]1ccc(-c2c(COC(=O)NC(C)C)c(COC(=O)NC(C)C)c3n2CCC3)cc1
[3]
  TGI: > 100 µM
[4]
  TGI: > 100 µM
[5]
  TGI: > 100 µM
[1]
  TGI: > 100 µM
[6]
  TGI: > 100 µM
[2]
  TGI: > 100 µM
[7]
  TGI: > 100 µM
[8]
  TGI: > 100 µM

## O=[N+]([O-])C(=C1NCCN1)/C(Cl)=C(\Cl)Br
[3]
  TGI: 33.5 µM
[4]
  TGI: > 60.5 µM
[5]
  TGI: > 73.2 µM
[1]
  TGI: > 100 µM
[6]
  TGI: > 89.9 µM
[2]
  TGI: > 100 µM
[7]
  TGI: 27.2 µM
[8]
  TGI: > 87.3 µM

## Cc1ccc(SCC(CSCCO)OCn2cnc3c2NC(N)=NC32OCCO2)cc1 (stereo unspecified)
[3]
  TGI: > 100 µM
[4]
  TGI: > 100 µM
[5]
  TGI: > 100 µM
[1]
  TGI: > 100 µM
[6]
  TGI: > 100 µM
[2]
  TGI: > 100 µM
[7]
  TGI: > 100 µM
[8]
  TGI: > 100 µM

## O=C1OCC(O)=C1C(c1ccc(Cl)cc1)c1cc2c(cc1O)OCO2 (stereo unspecified)
[3]
  TGI: > 100 µM
[4]
  TGI: > 100 µM
[5]
  TGI: > 100 µM
[1]
  TGI: > 100 µM
[6]
  TGI: > 100 µM
[2]
  TGI: > 100 µM
[7]
  TGI: > 100 µM

## O=C1/C(=C/c2ccc(O)cc2)CC/C1=C\c1ccc(O)cc1
[3]
  TGI: > 100 µM
[4]
  TGI: > 100 µM
[5]
  TGI: > 100 µM
[1]
  TGI: > 100 µM
[6]
  TGI: > 100 µM
[2]
  TGI: > 100 µM
[7]
  TGI: > 100 µM
[8]
  TGI: > 100 µM

## Nc1cccc2cc(Cl)cnc12
[3]
  TGI: > 100 µM
[4]
  TGI: > 100 µM
[5]
  TGI: > 100 µM
[1]
  TGI: > 100 µM
[6]
  TGI: > 100 µM
[2]
  TGI: > 100 µM
[7]
  TGI: > 100 µM
[8]
  TGI: > 100 µM

## CCCNC1=C2CC(C)CC(OC)[C@@H](O)[C@H](C)/C=C(\C)C(OC(N)=O)C(OC)/C=C\C=C(/C)C(=O)NC(=CC1=O)C2=O (stereo partly specified)
[3]
  TGI: > 100 µM
[4]
  GI50: 16 µM
  TGI: 84.4 µM
[5]
  GI50: 0.0589 µM
  TGI: > 100 µM
[1]
  TGI: 44.4 µM
[6]
  GI50: 0.134 µM
  TGI: 27.1 µM
[2]
  GI50: 0.0343 µM
  TGI: 18.3 µM
[7]
  GI50: 0.0606 µM
  TGI: > 100 µM
[8]
  GI50: 0.318 µM
  TGI: 36.4 µM

## CCC1(O)CC2CC(=O)OC2C1O (stereo unspecified)
[3]
  TGI: > 100 µM
[4]
  TGI: > 100 µM
[1]
  TGI: > 100 µM
[6]
  TGI: > 100 µM
[2]
  TGI: > 100 µM
[7]
  TGI: > 100 µM
[8]
  TGI: > 100 µM

## COc1c(C)c(C/C=C(\C)CCCCO[Si](c2ccccc2)(c2ccccc2)C(C)(C)C)c(OC)c(OC)c1OC
[3]
  TGI: 40.5 µM
[4]
  TGI: > 31.6 µM
[5]
  TGI: > 46.4 µM
[1]
  TGI: > 46.4 µM
[6]
  TGI: > 100 µM
[2]
  TGI: 38.6 µM
[7]
  TGI: > 46.4 µM
[8]
  TGI: > 46.4 µM
